One experiment addresses T1, 5-HT5A (Homo sapiens, UniProt P47898).
T1 construct: NIMH Psychoactive Drug Screening Program (PDSP)
In words: PDSP binding assay. Conditions: 10 μM, quadruplicate, cloned target.

Another experiment has as its target DOR (Homo sapiens, UniProt P41143). Put plainly: PDSP binding assay. Conditions: 10 μM, quadruplicate, cloned target.
The next experiment has as its target H2 (Homo sapiens, UniProt P25021). Put plainly: PDSP binding assay. Conditions: 10 μM, quadruplicate, cloned target.
For a further experiment, the target named is CRF1 (Homo sapiens, UniProt P34998). Put plainly: CRF1 Ca2+ assay. To be noted: presence of EC80 CRF.
CRF1, sequence (P34998 24-415): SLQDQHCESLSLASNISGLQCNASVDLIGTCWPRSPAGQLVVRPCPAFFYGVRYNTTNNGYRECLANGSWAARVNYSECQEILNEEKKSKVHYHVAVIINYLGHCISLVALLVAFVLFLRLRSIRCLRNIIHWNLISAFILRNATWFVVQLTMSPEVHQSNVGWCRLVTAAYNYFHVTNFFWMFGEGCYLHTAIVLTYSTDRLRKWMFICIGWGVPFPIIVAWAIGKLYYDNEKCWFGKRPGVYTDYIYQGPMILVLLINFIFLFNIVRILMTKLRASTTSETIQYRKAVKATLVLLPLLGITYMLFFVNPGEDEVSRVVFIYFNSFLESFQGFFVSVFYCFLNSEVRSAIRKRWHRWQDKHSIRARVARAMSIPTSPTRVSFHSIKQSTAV
Another experiment deals with CRF2 (Homo sapiens, UniProt Q13324). In words: CRF2 Ca2+ assay (absence of CRFBP(10 kD)). To be noted: presence of EC80 CRF.
CRF2, sequence (Q13324 whole entry): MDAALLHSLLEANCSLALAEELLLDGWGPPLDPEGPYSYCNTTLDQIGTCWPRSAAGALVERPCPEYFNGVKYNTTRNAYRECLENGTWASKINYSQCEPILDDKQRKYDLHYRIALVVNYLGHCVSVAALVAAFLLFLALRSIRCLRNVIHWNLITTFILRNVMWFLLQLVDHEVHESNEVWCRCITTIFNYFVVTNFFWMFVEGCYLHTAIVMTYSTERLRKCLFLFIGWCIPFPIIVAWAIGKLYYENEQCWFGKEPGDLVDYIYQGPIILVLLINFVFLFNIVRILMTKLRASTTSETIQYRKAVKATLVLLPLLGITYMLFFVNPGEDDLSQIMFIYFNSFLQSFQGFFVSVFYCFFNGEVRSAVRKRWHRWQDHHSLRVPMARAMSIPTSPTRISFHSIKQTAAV

SMILES strings stand for the structures.

H2, sequence (P25021 whole entry): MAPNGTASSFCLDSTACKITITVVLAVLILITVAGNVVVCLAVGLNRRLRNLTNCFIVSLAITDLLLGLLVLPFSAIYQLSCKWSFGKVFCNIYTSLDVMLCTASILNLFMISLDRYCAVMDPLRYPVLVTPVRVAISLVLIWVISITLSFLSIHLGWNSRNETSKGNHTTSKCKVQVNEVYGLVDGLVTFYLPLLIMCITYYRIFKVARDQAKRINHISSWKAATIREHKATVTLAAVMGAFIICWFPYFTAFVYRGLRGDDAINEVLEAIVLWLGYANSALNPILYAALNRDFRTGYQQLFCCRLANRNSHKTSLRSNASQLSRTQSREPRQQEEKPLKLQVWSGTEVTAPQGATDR
T1 sequence (P47898 whole entry, species assumed): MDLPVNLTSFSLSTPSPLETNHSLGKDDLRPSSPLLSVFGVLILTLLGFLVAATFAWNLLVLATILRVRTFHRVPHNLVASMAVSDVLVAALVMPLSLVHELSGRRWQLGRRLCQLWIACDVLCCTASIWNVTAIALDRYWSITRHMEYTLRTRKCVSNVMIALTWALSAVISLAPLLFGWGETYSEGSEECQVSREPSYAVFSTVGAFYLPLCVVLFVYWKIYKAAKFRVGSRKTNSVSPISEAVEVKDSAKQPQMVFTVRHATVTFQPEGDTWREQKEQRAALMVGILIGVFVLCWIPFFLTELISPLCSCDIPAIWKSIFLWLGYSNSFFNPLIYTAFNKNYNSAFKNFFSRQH
DOR, sequence (P41143 whole entry): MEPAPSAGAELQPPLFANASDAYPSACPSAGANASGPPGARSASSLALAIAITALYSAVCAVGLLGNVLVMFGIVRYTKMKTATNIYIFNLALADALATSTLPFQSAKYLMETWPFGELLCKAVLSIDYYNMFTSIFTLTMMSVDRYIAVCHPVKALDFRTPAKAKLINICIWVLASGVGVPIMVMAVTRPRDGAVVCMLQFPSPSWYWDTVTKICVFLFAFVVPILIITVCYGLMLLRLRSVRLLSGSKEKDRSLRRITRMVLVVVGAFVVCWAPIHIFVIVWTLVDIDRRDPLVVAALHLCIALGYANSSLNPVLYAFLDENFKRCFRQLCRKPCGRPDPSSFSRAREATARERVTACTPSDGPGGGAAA

For the molecule `Brc1ccccc1-c1nnc(CSc2nnnn2-c2ccccc2)o1` [MLS-0046818], the “Activity at 5-HT5A (binding assay)” value on 5-HT5A is −1%. The “Activity at DOR (binding assay)” value at DOR is −7%. The “Activity at H2 (binding assay)” value at H2 is 22%. At CRF1, the CRF1 activity result is “inactive”. Also, the “Activity toward CRF2 in the absence of CRFBP(10 kD)” value at CRF2 was “inactive”.

`CC(C)Cn1c(SCC(=O)N2CCc3ccccc3C2)nc2cc(Cl)ccc2c1=O` [MLS-0219419]: the “Activity at 5-HT5A (binding assay)” value at 5-HT5A was 12%. For the same molecule, on DOR, the “Activity at DOR (binding assay)” value is −8%. At H2, the “Activity at H2 (binding assay)” value was 20%. For the same molecule, the CRF1 activity entry at CRF1 was “inactive”.

The values above are taken from patent US12465594B2 (Brown University, priority 2018, dated 2025).
